We go through one compound from patent US20190255073A1, “ESTERS OF 3-POLYAMINE DERIVATIVES OF BILE ACIDS FOR THE TREATMENT OF INFECTIONS” (VIRBAC, priority 2016, published 2019).

The MIC is the smallest concentration in the dilution series that meets the test's criterion for growth inhibition. A lower MIC goes with a more susceptible organism.

SMILES strings stand for the structures. Values after ≈ are worked out from the molar mass of the structure shown.

For experiment [1], the system named is E. coli (1956). The experiment is described as follows: MIC determination by microplate dilution, E. coli animal strain. Format: cell-based, Escherichia coli. The following applies: Escherichia coli, Gram-negative, Mueller-Hinton medium, 24 h, 37° C. Put shortly: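 Strains precultured in Mueller-Hinton broth 24 h at 37 °C; compounds from 5 mg/mL stocks in DMSO/methanol 50/50, twofold serial dilution in 96-well plates, inoculum set to OD 0.01. Incubated 24 h at 37 °C, humid; OD read at 620 nm to derive MIC, duplicates.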

The test system of experiment [2] is CHO-K1 cells. As to the kind of experiment: WST1 cytotoxicity test on CHO-K1 cells. Format: cell-based, Chinese hamster. To be noted: Cricetulus griseus, CHO-K1, read-out: IC50 (μg/mL) CHO. The method, boiled down:
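Viability read-out: WST-1 tetrazolium cleavage by mitochondrial dehydrogenases, 20 min at 37 °C, A450. Compounds added at rising concentrations, in duplicate, to CHO-K1 cells for 24 h (37 °C, 5% CO2). IC50, the concentration halving viability, fitted by nonlinear regression.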
In general terms: Formazan colour is commonly taken as a measure of viable cells.

The test system of experiment [3] is P. aeruginosa (1051575). As to the kind of experiment: Potentiation of the doxycycline activity at 2 μg/mL. It counts as cell-based, Pseudomonas aeruginosa. The following applies: in combination with doxycycline 2 μg/mL; 24 h, 37°.

`CC(C)OC(=O)CC[C@@H](C)[C@H]1CCC2C3C(CC[C@@]21C)[C@@]1(C)CC[C@H](NCCCN(CCCN)CCCN)CC1C[C@H]3O` (stereo partly drawn) [(39), isopropyl 3β-(tris(3-aminopropyl)amine)chenodeoxycholate] returned an MIC in experiment [1] of 28 µg/mL (≈ 46.3 µM). For the same compound, the IC50 in experiment [2] stood at 110 µg/mL (≈ 182 µM). In addition, the “MIC - P. aeruginosa (1051575): content of compound of formula (I) to restore the doxycycline activity (at 2 μg/mL)” value in experiment [3] stood at 2 µg/mL.
